In patent US20240368135A1 (VERTEX PHARMACEUTICALS INCORPORATED, priority 2021, published 2024):
Where two headings read alike, the source gives them in different places.

Target: human NaV 1.8 (Homo sapiens, UniProt Q9Y5Y9)
Experiment: E-VIPR assay detecting and measuring NaV inhibition properties
Format: cell-based
Conditions: HEK cells expressing truncated human NaV 1.8
How it was run: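 Membrane potential was followed by coumarin/oxonol FRET during electrical field stimulation of matrigel-seeded HEK cells carrying truncated human NaV1.8 plus KIR2.1. Dosing used 11 points, 3-fold steps, top 300 nM final, 0.625% DMSO, with or without 25% human serum.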

[1] = no human serum, read-out: IC50 in the E-VIPR Assay
[2] = in the presence of human serum (compound numbers followed by *), read-out: IC50 in the E-VIPR Assay, performed in the presence of human serum

Chain of human NaV 1.8 (Q9Y5Y9 126-399 limits assumed): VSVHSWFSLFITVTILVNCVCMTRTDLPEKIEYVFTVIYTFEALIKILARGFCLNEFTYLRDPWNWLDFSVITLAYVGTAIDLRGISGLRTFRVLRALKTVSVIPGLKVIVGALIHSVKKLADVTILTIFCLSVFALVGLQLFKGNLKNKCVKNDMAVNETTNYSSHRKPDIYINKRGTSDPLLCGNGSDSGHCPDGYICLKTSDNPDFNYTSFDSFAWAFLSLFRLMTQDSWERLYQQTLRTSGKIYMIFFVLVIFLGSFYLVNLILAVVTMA
Chain of human NaV 1.8 (Q9Y5Y9 660-890 limits assumed): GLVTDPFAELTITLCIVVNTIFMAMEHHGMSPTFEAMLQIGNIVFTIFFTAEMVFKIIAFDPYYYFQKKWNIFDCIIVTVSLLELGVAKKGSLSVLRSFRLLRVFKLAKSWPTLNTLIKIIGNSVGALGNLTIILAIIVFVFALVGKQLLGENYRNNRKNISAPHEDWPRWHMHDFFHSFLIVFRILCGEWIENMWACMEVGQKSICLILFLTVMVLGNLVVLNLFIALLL
Chain of human NaV 1.8 (Q9Y5Y9 1148-1722 limits assumed): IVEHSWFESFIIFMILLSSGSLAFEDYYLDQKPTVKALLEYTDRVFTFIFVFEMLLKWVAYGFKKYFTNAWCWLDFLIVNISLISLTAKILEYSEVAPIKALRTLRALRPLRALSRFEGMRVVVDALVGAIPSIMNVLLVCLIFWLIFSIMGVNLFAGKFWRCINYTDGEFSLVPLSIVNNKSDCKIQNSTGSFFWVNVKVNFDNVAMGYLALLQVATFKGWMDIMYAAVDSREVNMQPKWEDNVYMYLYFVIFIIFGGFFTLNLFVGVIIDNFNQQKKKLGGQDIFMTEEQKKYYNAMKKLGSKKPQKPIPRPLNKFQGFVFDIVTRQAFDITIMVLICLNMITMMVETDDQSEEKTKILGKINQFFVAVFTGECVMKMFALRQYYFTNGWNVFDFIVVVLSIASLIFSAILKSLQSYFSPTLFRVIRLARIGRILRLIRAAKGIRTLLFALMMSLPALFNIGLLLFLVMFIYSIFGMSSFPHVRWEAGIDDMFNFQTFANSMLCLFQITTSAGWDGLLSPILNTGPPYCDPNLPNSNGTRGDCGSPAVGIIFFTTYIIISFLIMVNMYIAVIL

Structure (SMILES) | IC50 [1] [µM] | IC50 [2] [µM]
C[C@H]1[C@@H](c2ccc(F)c(F)c2OC2CC(O)C2)[C@H](C(=O)Nc2cccnc2)O[C@@]1(C)C(F)(F)F (stereo partly drawn) [Compound 654, (2R,3S,4S,5R)-3-(3,4-difluoro-2-((1S,3R)-3-hydroxycyclobutoxy)phenyl)-4,5-dimethyl-N-(pyridin-3-yl)-5-(trifluoromethyl)tetrahydrofuran-2-carboxamide] | < 0.01 | 
C[C@H]1[C@@H](c2ccc(F)c(F)c2OC(F)F)[C@H](C(=O)Nc2ccnc(CCO)c2)O[C@@]1(C)C(F)(F)F (single isomer, unassigned) [Compound 458] | < 0.01 | 
COc1c([C@H]2[C@H](C(=O)Nc3ccnc(N4C(=O)CN(C)C[C@@H]4C)c3)O[C@@](C)(C(F)(F)F)[C@H]2C)ccc(F)c1F [Compound 469, (2R,3S,4S,5R)-3-(3,4-difluoro-2-methoxyphenyl)-N-(2-((S)-2,4-dimethyl-6-oxopiperazin-1-yl)pyridin-4-yl)-4,5-dimethyl-5-(trifluoromethyl)tetrahydrofuran-2-carboxamide] | < 0.01 | 
COCc1c(F)ccc([C@@H]2[C@@H](C(=O)Nc3ccc(C(N)=O)nc3)O[C@](C)(C(F)(F)F)[C@@H]2C)c1OC (stereo in doubt) [Compound 178, rel-5-((2S,3R,4R,5S)-3-(4-fluoro-2-methoxy-3-(methoxymethyl)phenyl)-4,5-dimethyl-5-(trifluoromethyl)tetrahydrofuran-2-carboxamido)picolinamide] | ≥ 1 | 
CCOc1c(C2C(C(=O)Nc3ccnc(S(C)(=N)=O)c3)OC(C)(C(F)(F)F)C2C)ccc(F)c1F (single isomer, unassigned) [Compound 109, 3-(2-ethoxy-3,4-difluoro-phenyl)-4,5-dimethyl-N-[2-(methylsulfonimidoyl)-4-pyridyl]-5-(trifluoromethyl)tetrahydrofuran-2-carboxamide] | 0.1 to 1 | 
COc1c([C@H]2[C@H](C(=O)Nc3ccnc(N4CCC(N)C4=O)c3)O[C@@](C)(C(F)(F)F)[C@H]2C)ccc(F)c1F (single isomer, unassigned) [Compound 497, rel-(2R*,3S*,4S*,5R*)-N-(2-(3-amino-2-oxopyrrolidin-1-yl)pyridin-4-yl)-3-(3,4-difluoro-2-methoxyphenyl)-4,5-dimethyl-5-(trifluoromethyl)tetrahydrofuran-2-carboxamide] | 0.01 to 0.1 | 
C[C@H]1[C@@H](c2ccc(F)c(F)c2OC(F)F)[C@H](C(=O)Nc2cc(S(C)(=O)=O)ccn2)O[C@@]1(C)C(F)(F)F (single isomer, unassigned) [Compound 72] | 0.01 to 0.1 | 
Cc1ccc(NC(=O)C2OC(C)(C(F)(F)F)C(C)C2c2ccc(F)c(F)c2OC2CC(O)C2)cn1 [Compound 661, (2R,3S,4S,5R)-3-(3,4-difluoro-2-((1S,3R)-3-hydroxycyclobutoxy)phenyl)-4,5-dimethyl-N-(6-methylpyridin-3-yl)-5-(trifluoromethyl)tetrahydrofuran-2-carboxamide] | 0.01 to 0.1 | 
C[C@@H]1[C@H](c2ccc(F)c(F)c2OC(F)F)[C@@H](C(=O)Nc2ccnc(C(C)(C)O)c2)O[C@]1(C)C(F)(F)F (single isomer, unassigned) [Compound 83] |  | ≥ 1
COc1c([C@H]2C[C@@](C)(C(F)(F)F)O[C@@H]2C(=O)Nc2ccnc([C@H](O)CO)c2)ccc(F)c1C (single isomer, unassigned) [Compound 703] |  | ≥ 1
COc1c([C@H]2[C@H](C(=O)Nc3ccnc(N4CCCNCC4=O)c3)O[C@@](C)(C(F)(F)F)[C@H]2C)ccc(F)c1F [Compound 481, (2R,3S,4S,5R)-3-(3,4-difluoro-2-methoxyphenyl)-4,5-dimethyl-N-(2-(2-oxo-1,4-diazepan-1-yl)pyridin-4-yl)-5-(trifluoromethyl)tetrahydrofuran-2-carboxamide] | 0.01 to 0.1 | 
Cc1c(F)ccc([C@@H]2[C@@H](C(=O)Nc3ccn(C)c(=O)c3)O[C@](C)(C(F)(F)F)[C@@H]2C)c1OC(F)F (stereo in doubt) [Compound 99, rel-(2S,3R,4R,5S)-3-(2-(difluoromethoxy)-4-fluoro-3-methylphenyl)-4,5-dimethyl-N-(1-methyl-2-oxo-1,2-dihydropyridin-4-yl)-5-(trifluoromethyl)tetrahydrofuran-2-carboxamide] | ≥ 1 | 
C[C@H]1[C@@H](c2ccc(F)c(F)c2OCCO)[C@H](C(=O)Nc2cnc3nnn(C)c3c2)O[C@@]1(C)C(F)(F)F [Compound 565, (2R,3S,4S,5R)-3-(3,4-difluoro-2-(2-hydroxyethoxy)phenyl)-4,5-dimethyl-N-(1-methyl-1H-[1,2,3]triazolo[4,5-b]pyridin-6-yl)-5-(trifluoromethyl)tetrahydrofuran-2-carboxamide] | 0.01 to 0.1 | 
COc1cc(NC(=O)[C@@H]2O[C@@](C)(C(F)(F)F)[C@@H](C)[C@H]2c2ccc(F)c(F)c2OCCO)c(F)cn1 [Compound 570, (2R,3S,4S,5R)-3-(3,4-difluoro-2-(2-hydroxyethoxy)phenyl)-N-(5-fluoro-2-methoxypyridin-4-yl)-4,5-dimethyl-5-(trifluoromethyl)tetrahydrofuran-2-carboxamide] | 0.01 to 0.1 | 
C[C@@H]1[C@H](c2ccc(F)c(F)c2)[C@@H](C(=O)Nc2ccnc(S(C)(=O)=O)c2)O[C@]1(C)C(F)(F)F (stereo in doubt) [Compound 154, rel-(2S,3R,4R,5S)-3-(3,4-difluorophenyl)-4,5-dimethyl-N-(2-(methylsulfonyl)pyridin-4-yl)-5-(trifluoromethyl)tetrahydrofuran-2-carboxamide] | ≥ 1 | 

Continued, values first:

IC50 [1] [µM] | IC50 [2] [µM] | Structure (SMILES)
< 0.01 |  | COc1c(C2C(C(=O)Nc3cncnc3)OC(C)(C(F)(F)F)C2C)ccc(F)c1F (single isomer, unassigned) [Compound 38, 3-(3,4-difluoro-2-methoxy-phenyl)-4,5-dimethyl-N-pyrimidin-5-yl-5-(trifluoromethyl)tetrahydrofuran-2-carboxamide]
0.01 to 0.1 |  | COc1c([C@H]2[C@H](C(=O)Nc3ccc(-n4cncn4)nc3)O[C@@](C)(C(F)(F)F)[C@H]2C)ccc(F)c1F [Compound 402, (2R,3S,4S,5R)-N-(6-(1H-1,2,4-triazol-1-yl)pyridin-3-yl)-3-(3,4-difluoro-2-methoxyphenyl)-4,5-dimethyl-5-(trifluoromethyl)-tetrahydrofuran-2-carboxamide]
< 0.01 |  | COc1c([C@H]2[C@H](C(=O)Nc3ccnc(C(C)(O)CO)c3)O[C@@](C)(C(F)(F)F)[C@H]2C)ccc(F)c1F (single isomer, unassigned) [Compound 202, rel-(2R*,3S*,4S*,5R*)-3-(3,4-difluoro-2-methoxyphenyl)-N-(2-(1,2-dihydroxypropan-2-yl)pyridin-4-yl)-4,5-dimethyl-5-(trifluoromethyl)tetrahydrofuran-2-carboxamide]
≥ 1 |  | COc1c([C@H]2[C@H](C(=O)NCc3nc(C(C)C)no3)O[C@@](C)(C(F)(F)F)[C@H]2C)ccc(F)c1F [Compound 289, (2R,3S,4S,5R)-3-(3,4-difluoro-2-methoxyphenyl)-N-((3-isopropyl-1,2,4-oxadiazol-5-yl)methyl)-4,5-dimethyl-5-(trifluoromethyl)tetrahydrofuran-2-carboxamide]
 | 0.01 to 0.1 | COc1c([C@H]2[C@H](C(=O)Nc3cc(C(O)CO)ncc3F)O[C@@](C)(C(F)(F)F)[C@H]2C)ccc(F)c1C (single isomer, unassigned) [Compound 140]
< 0.01 |  | COc1c([C@H]2[C@H](C(=O)Nc3ccnc(C4(N)COC4)c3)O[C@@](C)(C(F)(F)F)[C@H]2C)ccc(F)c1F [Compound 340, (2R,3S,4S,5R)-N-(2-(3-aminooxetan-3-yl)pyridin-4-yl)-3-(3,4-difluoro-2-methoxyphenyl)-4,5-dimethyl-5-(trifluoromethyl)-tetrahydrofuran-2-carboxamide]
0.01 to 0.1 |  | COc1c([C@H]2[C@H](C(=O)Nc3cnn(C4COC4)c3C)O[C@@](C)(C(F)(F)F)[C@H]2C)ccc(F)c1F (single isomer, unassigned) [Compound 331]
0.01 to 0.1 |  | COc1c([C@H]2[C@H](C(=O)Nc3ccc(-c4nnc(C)o4)nc3)O[C@@](C)(C(F)(F)F)[C@H]2C)ccc(F)c1F [Compound 398, (2R,3S,4S,5R)-3-(3,4-difluoro-2-methoxyphenyl)-4,5-dimethyl-N-(6-(5-methyl-1,3,4-oxadiazol-2-yl)pyridin-3-yl)-5-(trifluoromethyl)-tetrahydrofuran-2-carboxamide]
< 0.01 |  | COc1c(C2C(C(=O)Nc3ccn(C)c(=O)c3)OC(C)(C(F)(F)F)C2C)ccc(F)c1F (single isomer, unassigned) [Compound 28, 3-(3,4-difluoro-2-methoxy-phenyl)-4,5-dimethyl-N-(1-methyl-2-oxo-4-pyridyl)-5-(trifluoromethyl)tetrahydrofuran-2-carboxamide]
≥ 1 |  | COc1c([C@H]2[C@H](C(=O)Nc3ncn(C)c3C)O[C@@](C)(C(F)(F)F)[C@H]2C)ccc(F)c1F [Compound 322, (2R,3S,4S,5R)-3-(3,4-difluoro-2-methoxyphenyl)-N-(1,5-dimethyl-1H-imidazol-4-yl)-4,5-dimethyl-5-(trifluoromethyl)-tetrahydrofuran-2-carboxamide]
≥ 1 |  | COc1c([C@H]2[C@H](C(=O)NCC(O)c3cnn(C)c3)O[C@@](C)(C(F)(F)F)[C@H]2C)ccc(F)c1F (stereo partly drawn) [Compound 301, (2R,3S,4S,5R)-3-(3,4-difluoro-2-methoxyphenyl)-N-(2-hydroxy-2-(1-methyl-1H-pyrazol-4-yl)ethyl)-4,5-dimethyl-5-(trifluoromethyl)tetrahydrofuran-2-carboxamide]
0.01 to 0.1 |  | COc1c([C@H]2[C@H](C(=O)Nc3ccnc(OC(F)F)c3)O[C@@](C)(C(F)(F)F)[C@H]2C)ccc(F)c1F [Compound 189, (2R,3S,4S,5R)-3-(3,4-difluoro-2-methoxyphenyl)-N-(2-(difluoromethoxy)pyridin-4-yl)-4,5-dimethyl-5-(trifluoromethyl)tetrahydrofuran-2-carboxamide]
